{
  "source": "patent US10441548B2",
  "about": "“Aggregating microparticles for medical therapy” (GRAYBUG VISION, INC., priority 2015, dated 2019)",
  "assay": "Acute non-GLP IVT ocular tolerability and toxicity study of sunitinib malate (free drug)",
  "assay_type": "in vivo, pigmented rabbits",
  "conditions": "single bilateral IVT injection in PBS, up to 7 days",
  "description": "An acute, non-GLP IVT study was conducted to evaluate the ocular tolerability and toxicity of sunitinib malate (free drug) for up to 7 days following a single IVT injection. Sunitinib malate was formulated in phosphate buffered saline and injected bilaterally (0.1 mL) at 0.125 or 1.25 mg per eye.\nFIG. 13A, FIG. 13B, and FIG. 13C illustrate select PK profiles for sunitinib malate in the retina, vitreous, and plasma, respectively, from pigmented rabbits.",
  "data": [
    {"smiles": "CCN(CC)CCNC(=O)c1c(C)[nH]c(/C=C2\\C(=O)Nc3ccc(F)cc32)c1C", "note": "[sunitinib malate]", "values": [
      {"measurement": "no-observed-adverse-effect-level (NOAEL) dose", "value": 0.125, "unit": "mg/eye"}
    ]}
  ]
}
